Laboratory results from patent US9120804B2, “8-substituted 2-amino-[1,2,4] triazolo [1, 5-A] pyrazines as Syk tryrosine kinase inhibitors and GCN2 serin kinase inhibitors” (Merck Patent GmbH, priority 2012, dated 2015).

Legend:
SYK = biological target: T1, SYK (Homo sapiens, UniProt P43405); assay: SYK flash plate assay (enzyme assay); type: biochemical
T1 construct: 2.5 nM SYK, 400 nM Biotin-Aha-Aha-KEDPDYEWPSAKK
How it was run: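 Radiometric Flashplate format: biotinylated peptide substrate (400 nM) and 33P-labelled ATP (10 μM) react with 2.5 nM enzyme for 1 hour at 30 °C in Hepes buffer, pH 7.5. After EDTA quench and washing, counts are taken; staurosporine defines non-specific signal, and IC50 values are derived.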

GCN2 = GCN2 (Homo sapiens, UniProt Q9P2K8); assay: GCN2 enzyme assay; type: biochemical
GCN2, sequence (Q9P2K8 whole entry): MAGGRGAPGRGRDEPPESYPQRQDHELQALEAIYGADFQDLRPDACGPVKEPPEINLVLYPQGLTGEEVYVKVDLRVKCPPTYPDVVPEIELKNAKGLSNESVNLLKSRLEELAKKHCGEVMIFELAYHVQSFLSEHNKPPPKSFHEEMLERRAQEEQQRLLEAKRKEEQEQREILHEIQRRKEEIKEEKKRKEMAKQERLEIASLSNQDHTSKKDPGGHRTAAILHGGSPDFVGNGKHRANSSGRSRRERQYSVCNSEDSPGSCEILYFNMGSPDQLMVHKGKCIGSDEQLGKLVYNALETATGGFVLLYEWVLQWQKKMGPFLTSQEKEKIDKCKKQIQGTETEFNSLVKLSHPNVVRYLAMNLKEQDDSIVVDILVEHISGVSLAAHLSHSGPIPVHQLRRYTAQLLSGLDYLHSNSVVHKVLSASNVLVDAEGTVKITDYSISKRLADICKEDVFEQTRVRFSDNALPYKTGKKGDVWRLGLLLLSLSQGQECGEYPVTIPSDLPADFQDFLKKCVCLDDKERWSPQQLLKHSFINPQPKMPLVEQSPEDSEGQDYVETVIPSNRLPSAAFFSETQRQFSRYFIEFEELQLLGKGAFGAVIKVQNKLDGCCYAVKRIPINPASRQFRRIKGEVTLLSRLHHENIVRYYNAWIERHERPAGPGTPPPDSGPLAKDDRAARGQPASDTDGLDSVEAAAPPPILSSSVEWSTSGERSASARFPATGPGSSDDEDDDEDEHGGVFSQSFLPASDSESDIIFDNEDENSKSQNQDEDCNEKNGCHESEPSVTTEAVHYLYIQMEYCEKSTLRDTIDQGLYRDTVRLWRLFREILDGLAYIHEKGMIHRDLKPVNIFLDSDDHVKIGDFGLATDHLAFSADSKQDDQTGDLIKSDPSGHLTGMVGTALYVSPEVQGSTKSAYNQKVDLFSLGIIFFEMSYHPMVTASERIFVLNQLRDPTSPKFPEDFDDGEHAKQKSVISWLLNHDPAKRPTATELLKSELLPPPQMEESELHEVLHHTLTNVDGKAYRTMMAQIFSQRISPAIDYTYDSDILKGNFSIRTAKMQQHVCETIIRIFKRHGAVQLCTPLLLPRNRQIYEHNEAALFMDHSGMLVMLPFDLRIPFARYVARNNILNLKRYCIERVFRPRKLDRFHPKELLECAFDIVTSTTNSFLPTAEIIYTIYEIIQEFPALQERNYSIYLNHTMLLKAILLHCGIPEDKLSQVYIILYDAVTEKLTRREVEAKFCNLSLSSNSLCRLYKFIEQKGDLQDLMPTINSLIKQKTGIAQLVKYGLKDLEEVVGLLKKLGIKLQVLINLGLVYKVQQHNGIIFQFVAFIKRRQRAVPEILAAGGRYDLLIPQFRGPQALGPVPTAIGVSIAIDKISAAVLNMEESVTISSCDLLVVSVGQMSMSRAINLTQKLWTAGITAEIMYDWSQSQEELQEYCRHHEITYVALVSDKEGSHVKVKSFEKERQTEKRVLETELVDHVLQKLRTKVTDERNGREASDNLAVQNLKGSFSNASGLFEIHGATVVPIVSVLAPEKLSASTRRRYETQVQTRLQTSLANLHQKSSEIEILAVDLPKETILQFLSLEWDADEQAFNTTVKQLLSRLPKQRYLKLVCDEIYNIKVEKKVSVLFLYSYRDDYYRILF

| SMILES | IC50 (SYK) | IC50 (GCN2) |
| --- | --- | --- |
| COc1cccc(Nc2nc3c(-c4cnn(C)c4)nccn3n2)c1 [C8, (3-Methoxy-phenyl)-[8-(1-methyl-1H-pyrazol-4-yl)-[1,2,4]triazolo[1,5-a]pyrazin-2-yl]-amine] | 3 to 50 µM | 3 to 50 µM |
| Cn1cc(-c2nccn3nc(Nc4ccc(C5(C(N)=O)CC5)cc4)nc23)cn1 [C64, 1-{4-[8-(1-methyl-1H-pyrazol-4-yl)-[1,2,4]triazolo[1,5-a]pyrazin-2-ylamino]-phenyl}-cyclopropanecarboxylic acid amide] | 0.3 to 3 µM | 0.3 to 3 µM |
| CN(c1nccn2nc(Nc3ccc4c(c3)NC(=O)C4(C)C)nc12)C1CCCNC1 (stereo not shown) [C88, 3,3-dimethyl-6-[8-(methyl-piperidin-3-yl-amino)-[1,2,4]triazolo[1,5-a]pyrazin-2-ylamino]-1,3-dihydro-indol-2-one] | 0.3 to 3 µM | 3 to 50 µM |
| Cn1cc(-c2nccn3nc(Nc4ccc(C5(C#N)CC5)cc4)nc23)cn1 [C63, 1-{4-[8-(1-methyl-1H-pyrazol-4-yl)-[1,2,4]triazolo[1,5-a]pyrazin-2-ylamino]-phenyl}-cyclopropanecarbonitrile] | 0.1 to 0.3 µM | 0.3 to 3 µM |
| COc1cc(Nc2nc3c(N4CCCC(C(=O)NCCO)C4)nccn3n2)cc(OC)c1 (stereo not shown) [C45, 1-[2-(3,5-dimethoxy-phenylamino)-[1,2,4]triazolo[1,5-a]pyrazin-8-yl]-piperidine-3-carboxylic acid (2-hydroxy-ethyl)-amide] | 3 to 50 µM | 3 to 50 µM |
| Cn1cc(-c2nccn3nc(Nc4ccc5c(C(=O)C(F)(F)F)c[nH]c5c4)nc23)cn1 [C112, 2,2,2-trifluoro-1-{6-[8-(1-methyl-1H-pyrazol-4-yl)-[1,2,4]triazolo[1,5-a]pyrazin-2-ylamino]-1H-indol-3-yl}-ethanone] | 0.3 to 3 µM | 3 to 50 µM |
| Cn1cc(-c2nccn3nc(Nc4ccc5c(c4)NC(=O)OC5(C)C)nc23)cn1 [C114, 4,4-dimethyl-7-[8-(1-methyl-1H-pyrazol-4-yl)-[1,2,4]triazolo[1,5-a]pyrazin-2-ylamino]-1,4-dihydro-benzo[d][1,3]oxazin-2-one] | < 0.1 µM | 0.3 to 3 µM |
| CN(c1nccn2nc(Nc3ccc4c(c3)NC(=O)C4(C)C)nc12)C1CCOCC1 [C101, 3,3-dimethyl-6-{8-[methyl-(tetrahydro-pyran-4-yl)-amino]-[1,2,4]triazolo[1,5-a]pyrazin-2-ylamino}-1,3-dihydro-indol-2-one] | 0.1 to 0.3 µM | 3 to 50 µM |
| CC1(C)OC(=O)Nc2cc(Nc3nc4c(N5CCC6(C5)NC(=O)NC6=O)nccn4n3)ccc21 (stereo not shown) [C118, 7-[2-(4,4-dimethyl-2-oxo-1,4-dihydro-2H-benzo[d][1,3]oxazin-7-ylamino)-[1,2,4]triazolo[1,5-a]pyrazin-8-yl]-1,3,7-triaza-spiro[4.4]nonane-2,4-dione] | < 0.1 µM | 3 to 50 µM |
| Cn1cc(-c2nccn3nc(Nc4cccc(N5CCOCC5)c4)nc23)cn1 [C18, [8-(1-Methyl-1H-pyrazol-4-yl)-[1,2,4]triazolo[1,5-a]pyrazin-2-yl]-(3-morpholin-4-yl-phenyl)-amine] | 0.3 to 3 µM | 3 to 50 µM |
| CC1(C)C(=O)Nc2cc(Nc3nc4c(N5CC[C@@H](O)C5)nccn4n3)ccc21 [C73, 6-[8-((R)-3-hydroxy-pyrrolidin-1-yl)-[1,2,4]triazolo[1,5-a]pyrazin-2-ylamino]-3,3-dimethyl-1,3-dihydro-indol-2-one] | 0.1 to 0.3 µM | 3 to 50 µM |
| CC1(C)C(=O)Nc2cc(Nc3nc4c(N5CC[C@H](O)C5)nccn4n3)ccc21 [C83, 6-[8-((S)-3-hydroxy-pyrrolidin-1-yl)-[1,2,4]triazolo[1,5-a]pyrazin-2-ylamino]-3,3-dimethyl-1,3-dihydro-indol-2-one] | 0.1 to 0.3 µM | 3 to 50 µM |
| Cn1cc(-c2nccn3nc(Nc4ccc5c(c4)NC(=O)CC5(C)C)nc23)cn1 [C144, 4,4-dimethyl-7-[8-(1-methyl-1H-pyrazol-4-yl)-[1,2,4]triazolo[1,5-a]pyrazin-2-ylamino]-3,4-dihydro-1H-quinolin-2-one] | < 0.1 µM | 0.3 to 3 µM |
| CC(C)C(O)(c1n[nH]c2cc(Nc3nc4c(-c5cnn(C)c5)nccn4n3)ccc12)C(C)C [C141, 2,4-dimethyl-3-{6-[8-(1-methyl-1H-pyrazol-4-yl)-[1,2,4]triazolo[1,5-a]pyrazin-2-ylamino]-1H-indazol-3-yl}-pentan-3-ol] | < 0.1 µM | 0.3 to 3 µM |
| Cn1cc(-c2nccn3nc(Nc4ccc(C#N)c(O)c4)nc23)cn1 [C36, 2-Hydroxy-4-[8-(1-methyl-1H-pyrazol-4-yl)-[1,2,4]triazolo[1,5-a]pyrazin-2-ylamino]-benzonitrile] | 0.3 to 3 µM | 0.3 to 3 µM |
| Cn1cc(-c2nccn3nc(Nc4cccc(S(N)(=O)=O)c4)nc23)cn1 [C14, 3-[8-(1-Methyl-1H-pyrazol-4-yl)-[1,2,4]triazolo[1,5-a]pyrazin-2-ylamino]-benzenesulfonamide] | 3 to 50 µM | 0.3 to 3 µM |

| SMILES | IC50 (SYK) | IC50 (GCN2) |
| --- | --- | --- |
| CN(C)Cc1nc2ccc(Nc3nc4c(-c5cnn(C)c5)nccn4n3)cc2[nH]1 [C33, (2-Dimethylaminomethyl-3H-benzoimidazol-5-yl)-[8-(1-methyl-1H-pyrazol-4-yl)-[1,2,4]triazolo[1,5-a]pyrazin-2-yl]-amine] | 0.1 to 0.3 µM | 0.3 to 3 µM |
| CS(=O)(=O)c1ccc(-c2nccn3nc(Nc4ccc(N5CCOCC5)cc4)nc23)cc1 [C38, 8-(4-methylsulfonylphenyl)-N-(4-morpholinophenyl)-[1,2,4]triazolo[1,5-a]pyrazin-2-amine] | 0.1 to 0.3 µM | 0.3 to 3 µM |
| CC1(C)C(=O)Nc2cc(Nc3nc4c(-c5cn[nH]c5)nccn4n3)ccc21 [C67, 3,3-dimethyl-6-[8-(1H-pyrazol-4-yl)-[1,2,4]triazolo[1,5-a]pyrazin-2-ylamino]-1,3-dihydro-indol-2-one] | < 0.1 µM | 0.3 to 3 µM |
| CC(C)C1(C(C)C)OC(=O)Nc2cc(Nc3nc4c(-c5cnn(C)c5)nccn4n3)ccc21 [C119, 4,4-diisopropyl-7-[8-(1-methyl-1H-pyrazol-4-yl)-[1,2,4]triazolo[1,5-a]pyrazin-2-ylamino]-1,4-dihydro-benzo[d][1,3]oxazin-2-one] | 0.1 to 0.3 µM | 3 to 50 µM |
| CC1(C)C(=O)Nc2cc(Nc3nc4c(N5CCC6(COC6)C5)nccn4n3)ccc21 [C81, 3,3-dimethyl-6-[8-(2-oxa-6-aza-spiro[3.4]oct-6-yl)-[1,2,4]triazolo[1,5-a]pyrazin-2-ylamino]-1,3-dihydro-indol-2-one] | < 0.1 µM | 3 to 50 µM |
| Cc1nc2cc(Nc3nc4c(-c5ccc(CN6CCOCC6)cc5)nccn4n3)ccc2[nH]1 [C57, (2-methyl-1H-benzoimidazol-5-yl)-[8-(4-morpholin-4-ylmethyl-phenyl)-[1,2,4]triazolo[1,5-a]pyrazin-2-yl]-amine] | 3 to 50 µM | 0.3 to 3 µM |
| Cc1nc2cc(Nc3nc4c(-c5ccc(C(=O)N6CCOCC6)cc5)nccn4n3)ccc2[nH]1 [C48, {4-[2-(2-methyl-1H-benzoimidazol-5-ylamino)-[1,2,4]triazolo[1,5-a]pyrazin-8-yl]-phenyl}-morpholin-4-yl-methanone] | 3 to 50 µM | 0.3 to 3 µM |
| CC1(C)OC(=O)Nc2cc(Nc3nc4c(-c5cccc6[nH]ncc56)nccn4n3)ccc21 [C120, 7-[8-(1H-indazol-4-yl)-[1,2,4]triazolo[1,5-a]pyrazin-2-ylamino]-4,4-dimethyl-1,4-dihydro-benzo[d][1,3]oxazin-2-one] | < 0.1 µM | 0.3 to 3 µM |
| CC1(C)C(=O)Nc2cc(Nc3nc4c(N[C@H]5CCCNC5)nccn4n3)ccc21 [C85, 3,3-dimethyl-6-[8-((S)-piperidin-3-ylamino)-[1,2,4]triazolo[1,5-a]pyrazin-2-ylamino]-1,3-dihydro-indol-2-one] | < 0.1 µM | 3 to 50 µM |
| CC1(C)C(=O)Nc2cc(Nc3nc4c(N5CC[C@H](N)C5)nccn4n3)ccc21 [C86, 6-[8-((S)-3-amino-pyrrolidin-1-yl)-[1,2,4]triazolo[1,5-a]pyrazin-2-ylamino]-3,3-dimethyl-1,3-dihydro-indol-2-one] | 0.3 to 3 µM | 3 to 50 µM |
| NC(=O)C1(c2ccc(Nc3nc4c(-c5cn[nH]c5)nccn4n3)cc2)CC1 [C66, 1-{4-[8-(1H-pyrazol-4-yl)-[1,2,4]triazolo[1,5-a]pyrazin-2-ylamino]-phenyl}-cyclopropanecarboxylic acid amide] | 0.1 to 0.3 µM | 3 to 50 µM |
| CC1(C)C(=O)Nc2cc(Nc3nc4c(N5CC(O)C5)nccn4n3)ccc21 [C74, 6-[8-(3-hydroxy-azetidin-1-yl)-[1,2,4]triazolo[1,5-a]pyrazin-2-ylamino]-3,3-dimethyl-1,3-dihydro-indol-2-one] | 0.1 to 0.3 µM | 3 to 50 µM |
| CC1(C)C(=O)Nc2cc(Nc3nc4c(N5CCc6[nH]cnc6C5)nccn4n3)ccc21 [C103, 3,3-dimethyl-6-[8-(1,4,6,7-tetrahydro-imidazo[4,5-c]pyridin-5-yl)-[1,2,4]triazolo[1,5-a]pyrazin-2-ylamino]-1,3-dihydro-indol-2-one] | < 0.1 µM | 3 to 50 µM |
| CC1(C)C(=O)Nc2cc(Nc3nc4c(N5CCC6(CC(=O)NC6=O)C5)nccn4n3)ccc21 (stereo not shown) [C95, 7-[2-(3,3-dimethyl-2-oxo-2,3-dihydro-1H-indol-6-ylamino)-[1,2,4]triazolo[1,5-a]pyrazin-8-yl]-2,7-diaza-spiro[4.4]nonane-1,3-dione] | < 0.1 µM | 3 to 50 µM |
| CC1(C)C(=O)Nc2cc(Nc3nc4c(N5CCC[C@H]5CO)nccn4n3)ccc21 [C84, 6-[8-((S)-2-hydroxymethyl-pyrrolidin-1-yl)-[1,2,4]triazolo[1,5-a]pyrazin-2-ylamino]-3,3-dimethyl-1,3-dihydro-indol-2-one] | 0.1 to 0.3 µM | 3 to 50 µM |
| Cn1cc(-c2nccn3nc(Nc4ccc5c(c4)NC(=O)C5(C)C)nc23)cn1 [C34, 3,3-Dimethyl-6-[8-(1-methyl-1H-pyrazol-4-yl)-[1,2,4]triazolo[1,5-a]pyrazin-2-ylamino]-1,3-dihydro-indol-2-one] | < 0.1 µM | 3 to 50 µM |
